# Results as given in US20130267532A1, “CYCLIC AMIDE COMPOUNDS AND THEIR USE IN THE TREATMENT OF DISEASE” (priority 2010, published 2013).
# Assays:
# [1] = target: T1, hERG potassium channel (Homo sapiens, UniProt Q12809); experiment: hERG analysis Method 1 (QPatch HT automated patch clamp, CHO cells); assay type: cell-based; details: hERG-expressing CHO cells, tail current, room temperature (22±2° C.), 4 cumulative concentrations
# T1 construct: expressed in transfected cells; host or cells: Chinese hamster ovary K1 (CHO) cells stably expressing hERG
# T1 sequence (Q12809 whole entry): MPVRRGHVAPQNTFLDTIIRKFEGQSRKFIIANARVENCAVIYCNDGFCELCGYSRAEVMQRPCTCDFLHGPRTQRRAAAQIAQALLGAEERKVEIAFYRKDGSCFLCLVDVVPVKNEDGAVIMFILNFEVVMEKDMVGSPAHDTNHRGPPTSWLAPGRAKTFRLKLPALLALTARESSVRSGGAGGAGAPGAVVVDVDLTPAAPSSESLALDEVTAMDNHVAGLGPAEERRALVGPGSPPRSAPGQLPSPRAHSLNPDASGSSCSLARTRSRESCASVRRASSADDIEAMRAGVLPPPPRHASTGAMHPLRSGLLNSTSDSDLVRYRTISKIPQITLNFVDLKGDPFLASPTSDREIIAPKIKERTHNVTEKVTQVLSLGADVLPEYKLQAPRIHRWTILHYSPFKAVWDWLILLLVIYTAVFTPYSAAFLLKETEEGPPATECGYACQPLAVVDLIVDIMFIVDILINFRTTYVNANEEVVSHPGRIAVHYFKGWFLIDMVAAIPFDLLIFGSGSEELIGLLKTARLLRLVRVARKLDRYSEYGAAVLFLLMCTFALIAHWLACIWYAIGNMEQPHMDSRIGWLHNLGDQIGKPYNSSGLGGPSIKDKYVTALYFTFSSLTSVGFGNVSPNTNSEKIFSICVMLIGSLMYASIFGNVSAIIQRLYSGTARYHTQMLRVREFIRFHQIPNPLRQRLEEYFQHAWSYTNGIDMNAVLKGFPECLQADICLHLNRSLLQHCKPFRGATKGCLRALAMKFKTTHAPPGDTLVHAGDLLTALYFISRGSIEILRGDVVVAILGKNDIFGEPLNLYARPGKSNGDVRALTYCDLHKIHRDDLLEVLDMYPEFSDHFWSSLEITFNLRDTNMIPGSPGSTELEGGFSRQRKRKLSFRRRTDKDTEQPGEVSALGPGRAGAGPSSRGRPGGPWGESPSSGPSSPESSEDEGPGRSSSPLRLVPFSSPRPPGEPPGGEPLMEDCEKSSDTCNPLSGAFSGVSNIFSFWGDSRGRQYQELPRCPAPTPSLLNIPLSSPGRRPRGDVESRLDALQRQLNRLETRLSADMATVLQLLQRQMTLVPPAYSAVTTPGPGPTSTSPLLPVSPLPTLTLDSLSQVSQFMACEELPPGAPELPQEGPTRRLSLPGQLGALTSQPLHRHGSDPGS
# Description: hERG (Human Ether-a-go-go Related Gene) Analysis—Method 1
# The hERG potassium current is measured in a hERG-stably-expressing Chinese hamster ovary K1 (CHO) cells. The experiments were performed using an automated planar patch-clamp system QPatch HT (Sophion Bioscience A/S). The application of pressure for forming gigaseals and whole-cell patch clamp configuration were established using the QPatch assay software. Patch-clamp experiments were performed in voltage-clamp mode and whole-cell currents were recorded from individual cells. The following stimulation protocol was applied to investigate the effects of compounds on hERG potassium channel.: The membrane potential was held at −80 mV and repetitively (every 15 s) depolarized to +20 mV for 5 s after the pulse to −50 mV for 20 ms served to define the baseline, followed by repolarizing step to −50 mV for 5 s to evaluate of the tail current amplitude. Experiments were conducted at room temperature (22±2° C.).
# Effects of compounds were determined from cumulative applications of increasing 4 concentrations and calculated as percent of blocked current. The data points were fitted with Hill equation to calculate half-maximal inhibition concentrations.
# The test solution includes:
# Extracellular solution (mM): 2 mM of CaCl2, 1 mM of MgCl2, 10 mM of HEPES, 4 mM of KCl, 145 mM of NaCl, and 10 mM of glucose; and
# Intracellular solution (mM): 5.4 mM of CaCl2, 1.8 mM of MgCl2, 10 mM of HEPES, 31 mM of KOH, 10 mM of EGTA, 120 mM of KCl, and 4 mM of ATP.
# [2] = target: T2, Recombinant human TLR7 (Homo sapiens, UniProt Q9NYK1); experiment: Human TLR7 assay (SEAP reporter in HEK293 cells); assay type: cell-based; details: TLR7 activation, SEAP induction, overnight incubation at 37° C., 0.1% DMSO
# T2 construct: expressed in transfected cells; host or cells: HEK293 cell line stably expressing the pNiFty2-SEAP reporter plasmid
# T2 sequence (Q9NYK1 27-1049): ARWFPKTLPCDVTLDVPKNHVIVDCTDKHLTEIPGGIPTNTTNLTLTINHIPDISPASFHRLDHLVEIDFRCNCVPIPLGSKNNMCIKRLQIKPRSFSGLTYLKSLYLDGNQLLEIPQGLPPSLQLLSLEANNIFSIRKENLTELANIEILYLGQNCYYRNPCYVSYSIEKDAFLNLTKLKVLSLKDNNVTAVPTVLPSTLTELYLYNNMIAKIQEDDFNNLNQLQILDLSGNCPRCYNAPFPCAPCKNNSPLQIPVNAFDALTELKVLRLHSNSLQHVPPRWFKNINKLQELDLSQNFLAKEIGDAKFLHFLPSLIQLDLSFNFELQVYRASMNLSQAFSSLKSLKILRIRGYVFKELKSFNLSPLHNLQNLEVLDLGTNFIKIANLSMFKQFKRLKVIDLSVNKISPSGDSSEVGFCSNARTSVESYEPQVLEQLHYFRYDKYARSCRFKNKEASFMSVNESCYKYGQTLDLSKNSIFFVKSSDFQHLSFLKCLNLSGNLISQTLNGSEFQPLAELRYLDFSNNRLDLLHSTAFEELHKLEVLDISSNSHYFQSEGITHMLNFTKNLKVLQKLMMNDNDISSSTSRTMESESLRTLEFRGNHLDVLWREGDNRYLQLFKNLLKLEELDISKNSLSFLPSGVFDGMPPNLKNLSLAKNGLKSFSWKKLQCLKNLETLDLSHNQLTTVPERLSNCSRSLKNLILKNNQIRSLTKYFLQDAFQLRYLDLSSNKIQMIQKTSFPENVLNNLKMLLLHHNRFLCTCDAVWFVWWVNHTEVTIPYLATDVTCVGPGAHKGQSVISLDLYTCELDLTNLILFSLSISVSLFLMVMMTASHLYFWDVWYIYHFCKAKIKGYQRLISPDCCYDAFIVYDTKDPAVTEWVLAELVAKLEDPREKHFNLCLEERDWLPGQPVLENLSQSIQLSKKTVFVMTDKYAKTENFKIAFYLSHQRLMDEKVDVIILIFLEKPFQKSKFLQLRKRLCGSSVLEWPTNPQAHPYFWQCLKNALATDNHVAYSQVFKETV
# Description: The ability of compounds to activate TLR7 in vitro was assessed using the human TLR7 assay described below.
# Recombinant human TLR7 was stably expressed in a HEK293 cell line already stably expressing the pNiFty2-SEAP reporter plasmid; integration of the reporter gene was maintained by selection with the antibiotic zeocin. The most common variant sequence of human TLR7 (represented by the EMBL sequence AF240467) was cloned into the mammalian cell expression vector pUNO and transfected into this reporter cell-line. Transfectants with stable expression were selected using the antibiotic blasticidin. In this reporter cell-line, expression of secreted alkaline phosphatase (SEAP) is controlled by an NF-κB/ELAM-1 composite promoter comprising five NF-κB sites combined with the proximal ELAM-1 promoter. TLR signaling leads to the translocation of NF-κB and activation of the promoter results in expression of the SEAP gene. TLR7-specific activation was assessed by determining the level of SEAP produced following overnight incubation of the cells at 37° C. with the standard compound in the presence of 0.1% (v/v) dimethylsulfoxide (DMSO). Concentration dependent induction of SEAP production by compounds was expressed as the concentration of compound which produced half of the maximal level of SEAP induction for that compound (EC50).
Structure (SMILES),EC50 [2],IC50 [1]
"CCCCNc1nc(N)nc(C)c1Cc1ccc(N2CCN(C)CC2=O)cc1OC [Example 1, 1-(4-{[2-Amino-4-(butylamino)-6-methylpyrimidin-5-yl]methyl}-3-methoxyphenyl)-4-methylpiperazin-2-one]",63.1 nM,2900 nM
"CCCCCNc1nc(N)nc(C)c1Cc1ccc(N2CCN(C)CC2=O)cc1OC [Example 2, 1-(4-{[2-Amino-4-methyl-6-(pentylamino)pyrimidin-5-yl]methyl}-3-methoxyphenyl)-4-methylpiperazin-2-one]",63.1 nM,800 nM

# Further lines, with some results ahead:
EC50 [2],Structure (SMILES),IC50 [1]
25.1 nM,"CCC[C@@H](CCO)Nc1nc(N)nc(C)c1Cc1ccc(N2CCN(C)CC2=O)cc1OC [Example 3, (S)-1-(4-{[2-Amino-4-(1-hydroxyhexan-3-ylamino)-6-methylpyrimidin-5-yl]methyl}-3-methoxyphenyl)-4-methylpiperazin-2-one]",> 10000 nM
200 nM,"CCC[C@@H](CO)Nc1nc(N)nc(C)c1Cc1ccc(N2CCN(C)CC2=O)cc1OC [Example 4, (S)-1-(4-{[2-Amino-4-(1-hydroxypentan-2-ylamino)-6-methylpyrimidin-5-yl]methyl}-3-methoxyphenyl)-4-methylpiperazin-2-one]",> 10000 nM
126 nM,"CCC[C@@H](CCO)Nc1nc(N)nc(C)c1Cc1ccc(N2CCNCC2=O)cc1OC [Example 5, (S)-1-(4-{[2-Amino-4-(1-hydroxyhexan-3-ylamino)-6-methylpyrimidin-5-yl]methyl}-3-methoxyphenyl)piperazin-2-one]",> 10000 nM
